Laboratory results taken from US20230331690A1, “THC DERIVATIVES, ORAL DOSAGE FORMS COMPRISING SAME, USES THEREOF FOR TREATING DISEASES AND DISORDERS AND SYNTHESIS THEREOF” (BAR-ILAN UNIVERSITY, priority 2020, published 2023).
Where “and” joins values, the source holds several entries; their conditions need not be identical. Identical values can stand only once. Like-named read-outs stand apart in the source and are kept apart here.

How the values were obtained:
[1] = Persistence over time, brain samples postmortem (Example 18); type: in vivo, mice
Method: (§1) Blood samples from each mouse were collected at each time point for the pharmacokinetics tests. For 6 h after administrating of all tested drugs, and after testing their WRL on the hot plate, half the mice (n=3) of each group were sacrificed, and the liver and brain of each animal were taken for pharmacokinetics tests. From the remaining mice, blood samples were acquired at 12 h after administration for pharmacokinetics tests. At 24 h after drug administration, and after checking the WRL again, second half of each group of mice were sacrificed, and the liver and brain of each animal were taken for pharmacokinetics tests.
(§2) All the results of the brain and liver samples, which were taken postmortem 6 h or 24 h after administration (n=3) are summarized in Tables 12-13.

mice = test: Hot plate assay, withdrawal reflex latency (WRL); type: in vivo; settings: for Hot plate Time: per animal
[2] = Body temperature by rectal thermometer (hypothermia)
[3] = Persistence over time, liver samples postmortem (Example 18); type: in vivo, mice; settings: mouse, liver, oral, read-out: Average results for 3 mice (Table 13, liver); for concentration at 6 h: died at 6 h; for concentration at 24 h: died at 24 h, number in brackets = mice with a value
Method: as §1, §2

[4] = Pharmacokinetics, liver samples (Example 17); type: in vivo, mice; settings: for concentration at 24 h / concentration at 5 h: mouse, liver; for concentration at 24 h: ip; for concentration at 5 h: po
[5] = Persistence over time, blood samples (Example 18); type: in vivo, mice
Method: as §1

[6] = Pharmacokinetics, blood samples (Example 17); settings: for concentration at 0.5 h: mouse, blood, ip, Component in the blood, label = analyte
Method: The pharmacokinetics of 9-CD3-(8-D2)-THC compared to natural THC was evaluated using both intraperitoneal i.p. injection and an oral gavage administration for each material. The mice were divided into four groups containing 6 mice (24 mice total). For each group of mice, a blood sample was withdrawn at baseline (t=0), and half-hour intervals (t=0.5, 2 and 5 h) after administration of the drug. Three mice, half of each group, were euthanized with CO2 after 5 h and their organs (brain and liver) were collected. From the second half of each group, another blood sample was withdrawn 24 h after administration, and then these animals were euthanized and the brain and liver were collected for analysis.

[7] = 8 mg/Kg oral, t = 6 h, listed as THC-d5

Compound: [2H]C([2H])([2H])C1=C[C@H]2c3c(O)cc(CCCCC)cc3OC(C)(C)[C@@H]2CC1([2H])[2H] [9-CD3-(8-D2)-THC]
- presence in the brain ([1]; 24 h after administration, highest concentration of 8 mg/kg): evidence for the synthetic material in the brain
- concentration at 6 h ([1]; mouse, brain, oral, 8 mg/kg administered, died at 6 h, number in brackets = mice with a value, read-out: Average results for 3 mice - brain samples): 48 ng/g
- Hot plate Avg. 6 mice (mice; 2 mg/Kg oral, t = 0.5 h): 9.52 s
- Hot plate Time (mice; 2 mg/Kg oral, t = 0.5 h, listed as THC-d5): 9.4 s and 9.3 s and 8.9 s and 10.9 s and 12.0 s and 6.6 s
- Hot plate Avg. 6 mice (mice; 2 mg/Kg oral, t = 3 h): 10.97 s
- Hot plate Time (mice; 2 mg/Kg oral, t = 3 h, listed as THC-d5): 7.2 s and 12.1 s and 8.5 s and 19.3 s and 13.1 s and 5.6 s
- Hot plate Avg. 6 mice (mice; 2 mg/Kg oral, t = 6 h): 10.07 s
- Hot plate Time (mice; 2 mg/Kg oral, t = 6 h, listed as THC-d5): 9.3 s and 14.5 s and 4.5 s and 15.8 s and 8.9 s and 7.4 s
- Hot plate Avg. 3 mice (mice; 2 mg/Kg oral, t = 24 h): 8.3 s
- Hot plate Time (mice; 2 mg/Kg oral, t = 24 h, listed as THC-d5): 7.9 s and 9.5 s and 7.5 s
- increase in the WRL compared to baseline (mice; 2 mg/kg, 0.5 h): 3%
- change in average WRL compared to baseline (mice; 2 mg/kg, 3 h): +19%
- change in average WRL compared to baseline (mice; 2 mg/kg, 6 h): +9%
- Hot plate Avg. 6 mice (mice; 4 mg/Kg oral, t = 0.5 h): 14.03 s
- Hot plate Time (mice; 4 mg/Kg oral, t = 0.5 h, listed as THC-d5): 19.2 s and 10.3 s and 13.0 s and 9.5 s and 15.8 s and 16.4 s
- Hot plate Avg. 6 mice (mice; 4 mg/Kg oral, t = 3 h): 13.77 s
- Hot plate Time (mice; 4 mg/Kg oral, t = 3 h, listed as THC-d5): 17.5 s and 11.8 s and 12.1 s and 9.2 s and 12.5 s and 19.5 s
- Hot plate Avg. 6 mice (mice; 4 mg/Kg oral, t = 6 h): 15.38 s
- Hot plate Time (mice; 4 mg/Kg oral, t = 6 h, listed as THC-d5): 8.7 s and 19.9 s and 12.1 s and 8.3 s and 22.5 s and 20.8 s
- Hot plate Avg. 3 mice (mice; 4 mg/Kg oral, t = 24 h): 14.27 s
- Hot plate Time (mice; 4 mg/Kg oral, t = 24 h, listed as THC-d5): 5.2 s and 21.5 s and 16.1 s
- increase in the WRL compared to baseline (mice; 4 mg/kg, 0.5 h): 68%
- change in average WRL compared to baseline (mice; 4 mg/kg, 3 h): +65%
- change in average WRL compared to baseline (mice; 4 mg/kg, 6 h): +85%
- Hot plate Avg. 6 mice (mice; 8 mg/Kg oral, t = 0.5 h): 15.42 s
- Hot plate Time (mice; 8 mg/Kg oral, t = 0.5 h, cut-off 30 s, listed as THC-d5): 19.9 s and 24.5 s and 11.1 s and 17.5 s and 10.1 s and 9.4 s
- Hot plate Avg. 6 mice (mice; 8 mg/Kg oral, t = 3 h): 22.1 s
- Hot plate Time (mice; 8 mg/Kg oral, t = 3 h, cut-off 30 s, listed as THC-d5): 30.0 sec. (3×) and 6.0 sec. and 26.2 sec. and 10.4 sec.
- Hot plate Avg. 6 mice (mice; 8 mg/Kg oral, t = 3 h, listed as THC-d5): 22.10 s
- Hot plate Avg. 6 mice (mice; 8 mg/Kg oral, t = 6 h): 8.4 s
- Hot plate Time (mice; [7]): 6.4 s and 9.8 s and 11.5 s and 7.1 s and 13.4 s and 2.3 s
- Hot plate Avg. 6 mice (mice; [7]): 8.42 s
- Hot plate Avg. 3 mice (mice; 8 mg/Kg oral, t = 24 h): 20.8 s
- animal outcome printed in the hot plate Time column (mice; 8 mg/Kg oral, t = 24 h, animal 20): Died
- Hot plate Time (mice; 8 mg/Kg oral, t = 24 h, cut-off 30 s, listed as THC-d5): 30.0 s and 11.2 s
- Hot plate Avg. 3 mice (mice; 8 mg/Kg oral, t = 24 h, listed as THC-d5): 20.6 s
- analgesic effect compared to natural THC and morphine (mice; 8 mg/kg oral, up to 24 h after administration): stronger and longer lasting analgesic effect
- average increase in WRL compared to baseline (t=0) (mice; 8 mg/kg, 0.5 h): 67.6%
- change in average WRL compared to t=0 at baseline (mice; 8 mg/kg, 3 h): 140%
- time of strongest effect on body temperature after drug administration ([2]; high concentration of 8 mg/kg oral): 3 h
- hypothermia effect (body temperature) ([2]; medium concentration of 4 mg/kg oral): very clear hypothermia effect
- Body temperature, Avg. change compared to t = 0, at t = 3 h ([2]; mice, avg. of 6 mice, 8 mg/kg (groups C+D), t = 3 h after administration): −2.6 °C
- Animal status in the Temp. column at t = 24 h ([2]; mice, group D, 8 mg/kg, single animal, t = 24 h): Died
- concentration at 6 h ([3]; 2 mg/kg administered): 3.31 ng/g
- concentration at 24 h ([3]; 2 mg/kg administered): 0.75 ng/g
- concentration at 6 h ([3]; 4 mg/kg administered): 16.1 ng/g
- concentration at 6 h ([3]; 8 mg/kg administered): 57.8 ng/g
- concentration at 24 h ([3]; 8 mg/kg administered): 1.64 ng/g
- average liver concentration, times more than THC ([4]; 5 h after oral gavage administration): 1.59 times
- average liver concentration, times more than THC ([4]; 24 h after i.p. administration): 1.40 times
- concentration at 24 h ([4]; 24 h after i.p. administration, n=3, read-out: average liver concentration): 10.7 ng/g
- concentration at 24 h ([4]; 24 h after i.p. injection of THC or THC-d5, label = analyte, n=3, read-out: Component in the liver, Average): 10.7 ng/mL
- concentration at 24 h ([4]; 24 h after i.p. injection of THC or THC-d5, label = analyte, read-out: Component in the liver, mouse 1): 12.4 ng/mL
- concentration at 24 h ([4]; 24 h after i.p. injection of THC or THC-d5, label = analyte, read-out: Component in the liver, mouse 2): 15 ng/mL
- concentration at 24 h ([4]; 24 h after i.p. injection of THC or THC-d5, label = analyte, read-out: Component in the liver, mouse 3): 4.64 ng/mL
- concentration at 5 h ([4]; 5 h after oral gavage administration of THC or THC-d5, label = analyte, n=3, read-out: Component in the liver, Average): 5.99 ng/mL
- concentration at 5 h ([4]; 5 h after oral gavage administration of THC or THC-d5, label = analyte, read-out: Component in the liver, mouse 1): 5.57 ng/mL
- concentration at 5 h ([4]; 5 h after oral gavage administration of THC or THC-d5, label = analyte, read-out: Component in the liver, mouse 2): 6.28 ng/mL
- concentration at 5 h ([4]; 5 h after oral gavage administration of THC or THC-d5, label = analyte, read-out: Component in the liver, mouse 3): 6.13 ng/mL
- concentration at 5 h ([4]; 5 h after oral gavage administration, n=3, read-out: average liver concentration): 5.99 ng/g
- Average results, blood samples ([5]; 4 mg/kg administration, Time 3 h, label = analyte): 1.44 (4/4) ng/mL
- Average results, blood samples ([5]; 8 mg/kg administration, Time 12 h (3 mice), label = analyte): 0.15 (1/1) ng/mL
- metabolic stability compared to THC ([5]; conclusion from mouse blood, brain and liver samples): better metabolic stability than THC
- concentration at 0.5 h ([5]; mouse, blood, oral, 4 mg/kg administration of THC or THC-d5, Time 0.5 h, label = analyte): 10.4 ng/mL
- concentration at 0.5 h ([5]; mouse, blood, oral, 8 mg/kg administration of THC or THC-d5, Time 0.5 h, label = analyte): 22.5 ng/mL
- concentration at 3 h ([5]; mouse, blood, oral, 8 mg/kg administration, Time 3 h, label = analyte): 7.27 ng/mL
- concentration at 6 h ([5]; mouse, blood, oral, 8 mg/kg administration, Time 6 h, label = analyte): 1.81 ng/mL
- average blood concentration, times higher than THC ([6]; 0.5 h after i.p. administration): 1.87 times
- concentration at 0.5 h ([6]; Average, 0.5 h after i.p. injection of THC or THC-d5, n=6 (THC-d5 n=5)): 110 ng/mL
- concentration at 0.5 h ([6]; mouse 1, 0.5 h after i.p. injection of THC or THC-d5): 183 ng/mL
- concentration at 0.5 h ([6]; mouse 2, 0.5 h after i.p. injection of THC or THC-d5): 93.8 ng/mL
- concentration at 0.5 h ([6]; mouse 4, 0.5 h after i.p. injection of THC or THC-d5): 141 ng/mL
- concentration at 0.5 h ([6]; mouse 5, 0.5 h after i.p. injection of THC or THC-d5): 74.1 ng/mL
- concentration at 0.5 h ([6]; mouse 6, 0.5 h after i.p. injection of THC or THC-d5): 58.9 ng/mL
